Laboratory results published in US20250188110A1, “SPECIFIC SMALL MOLECULE INHIBITORS THAT BLOCK KMT9 METHYLTRANSFERASE ACTIVITY AND FUNCTION” (ALBERT-LUDWIGS-UNIVERSITÄT FREIBURG, priority 2021, published 2025).
pIC50, pKd: −log10 of the molar value.

Assays:
KMT9 [1] = target: T1, KMT9 (Homo sapiens, UniProt Q9Y5N5); assay: Microscale thermophoresis (MST) KMT9 binding; conditions: microscale thermophoresis, His-tag labelled KMT9 (20 nM); read-out: MST
T1 sequence (Q9Y5N5 1-214): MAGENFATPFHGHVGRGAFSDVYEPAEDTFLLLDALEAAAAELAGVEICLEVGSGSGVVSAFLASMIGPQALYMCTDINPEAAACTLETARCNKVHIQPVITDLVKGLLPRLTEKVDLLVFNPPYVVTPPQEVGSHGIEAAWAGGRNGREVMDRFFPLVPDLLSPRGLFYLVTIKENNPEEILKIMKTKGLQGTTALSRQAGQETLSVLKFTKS
T1 sequence (Q9UI30 1-120 isoform Q9UI30-2 partner): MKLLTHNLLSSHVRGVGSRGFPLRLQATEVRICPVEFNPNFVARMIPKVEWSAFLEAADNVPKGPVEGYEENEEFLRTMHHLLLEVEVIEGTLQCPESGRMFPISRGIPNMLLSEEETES
In short: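 Kd from microscale thermophoresis: compound series against 20 nM His-KMT9 labelled via RED-Tris-NTA, buffer 25 mM HEPES (pH 7.5)/100 mM NaCl/1 mM DTT/0.05% Tween, 40% MST power, 100% LED. Reported as classes: A ≤10 nM, B >10–100 nM, C >100–1000 nM, D >1000 nM.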

KMT9 [2] = target: T1, KMT9; assay: KMT9 thermal shift assay (SyproOrange); assay type: binding; conditions: ΔTm; 500 µM compound, 2 μM KMT9, 5X SO; read-out: Thermal shift
In short: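 ΔTm versus DMSO-only control is reported in bins (>20 K, 15–20 K, 10–15 K, ≤10 K), using Tm from Boltzmann sigmoidal fits of SyproOrange melt curves. KMT9 with compound in pH 8.5 BTP buffer containing MgCl2 and DTT was preincubated at 25° C, then ramped 1° C per 15 s up to 95° C.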

KMT9 [3] = target: T1, KMT9; assay: KMT9 methyltransferase inhibition assay, 3H-SAM scintillation (entries 1-154); assay type: biochemical; conditions: entries 1-154: 3H-SAM assay, 25 nM KMT9, 5 μM ETF1
In short: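 Tritium transfer from SAM (0.3 μM 3H-SAM, 0.7 μM unlabelled, final) to 5 μM ETF1 fragment by 25 nM KMT9 was measured after 2 h at 30° C, pH 8.5. Precipitated peptide was collected on filters and scintillation counted; IC50 came from a four-parameter fit of inhibition normalised to controls.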

SMILES | pKd (KMT9 [1]) | ΔTm at 500 µM (KMT9 [2]) | pIC50 (KMT9 [3])
CNc1ncnc2c1ccn2[C@@H]1C[C@H](CN(CCCNCCc2ccc3ccccc3c2)CC(F)(F)F)[C@@H](O)[C@H]1O [377 (281), (1R,2S,3R,5R)-3-(4-(methylamino)-7H-pyrrolo[2,3-d]pyrimidin-7-yl)-5-(((3-((2-(naphthalen-2-yl)ethyl)amino)propyl)(2,2,2-trifluoroethyl)amino)methyl) cyclopentane-1,2-diol] | < 6.00 | ≤ 10 °C | < 5.00
NC[C@H]1O[C@@H](n2cc3c4c(ncnc42)NCCC3)[C@H](O)[C@@H]1O [416 (287), (2R,3S,4R,5R)-2-(aminomethyl)-5-(6,7,8,9-tetrahydro-2H-2,3,5,6-tetraazabenzo[cd]azulen-2-yl) tetrahydrofuran-3,4-diol] | < 6.00 | ≤ 10 °C | < 5.00
CNCCC(=O)N(C)C[C@H]1C[C@@H](n2ccc3c(NC)ncnc32)[C@H](O)[C@@H]1O [417 (288), N-(((1R,2R,3S,4R)-2,3-dihydroxy-4-(4-(methylamino)-7H-pyrrolo[2,3-d]pyrimidin-7-yl)cyclopentyl)methyl)-N-methyl-3-(methylamino)propanamide] | < 6.00 | ≤ 10 °C | < 5.00
CNc1ncnc2c1ccn2[C@@H]1C[C@H](CNC(=O)C2CCCNC2)[C@@H](O)[C@H]1O (stereo partly drawn) [418 (289), N-(((1R,2R,3S,4R)-2,3-dihydroxy-4-(4-(methylamino)-7H-pyrrolo[2,3-d]pyrimidin-7-yl)cyclopentyl)methyl) piperidine-3-carboxamide] | < 6.00 | ≤ 10 °C | < 5.00
CNc1ncnc2c1ccn2[C@@H]1C[C@H](COCCNCCc2ccccc2)[C@@H](O)[C@H]1O [419 (290), (1R,2S,3R,5R)-3-[4-(Methylamino)pyrrolo[2,3-d]pyrimidin-7-yl]-5-({2-[(2-phenylethyl)amino]ethoxy}methyl) cyclopentane-1,2-diol] | < 6.00 | ≤ 10 °C | < 5.00
CNc1ncnc2c1ccn2[C@@H]1C[C@H](COCCCNCCc2ccccc2)[C@@H](O)[C@H]1O [420 (291), (1R,2S,3R,5R)-3-(4-(methylamino)-7H-pyrrolo[2,3-d]pyrimidin-7-yl)-5-((3-(phenethylamino)propoxy)methyl) cyclopentane-1,2-diol] | < 6.00 | ≤ 10 °C | < 5.00
CNc1ncnc2c1ccn2[C@@H]1C[C@H](COCCCNCCc2cccc(Oc3ccccc3)c2)[C@@H](O)[C@H]1O [421 (292), (1R,2S,3R,5R)-3-(4-(Methylamino)-7H-pyrrolo[2,3-d]pyrimidin-7-yl)-5-((3-((3-phenoxyphenethyl)amino)propoxy)methyl) cyclopentane-1,2-diol] | < 6.00 | ≤ 10 °C | < 5.00
CNc1ncnc2c1ccn2[C@@H]1C[C@H](/C=C/CCNCCc2ccccc2)[C@@H](O)[C@H]1O [422 (293), (1R,2S,3R,5R)-3-(4-(methylamino)-7H-pyrrolo[2,3-d]pyrimidin-7-yl)-5-((E)-4-(phenethylamino)but-1-en-1-yl) cyclopentane-1,2-diol] | < 6.00 | ≤ 10 °C | < 5.00
CNc1ncnc2c1ccn2[C@@H]1C[C@H](CCCCNCCc2ccccc2)[C@@H](O)[C@H]1O [423 (294), (1R,2S,3R,5S)-3-(4-(methylamino)-7H-pyrrolo[2,3-d]pyrimidin-7-yl)-5-(4-(phenethylamino)butyl) cyclopentane-1,2-diol] | < 6.00 | ≤ 10 °C | < 5.00
CNc1ncnc2c1ccn2[C@@H]1C[C@H](CCCCCNCCc2ccccc2)[C@@H](O)[C@H]1O [424 (295), (1R,2S,3R,5S)-3-(4-(Methylamino)-7H-pyrrolo[2,3-d]pyrimidin-7-yl)-5-(5-(phenethylamino)pentyl) cyclopentane-1,2-diol] | 6.00 to 7.00 | 10 to 15 °C | 5.00 to 6.00
CNc1ncnc2c1ccn2[C@@H]1C[C@H](/C=C/CCCNCCc2ccccc2)[C@@H](O)[C@H]1O [425 (296), (1R,2S,3R,5R)-3-(4-(methylamino)-7H-pyrrolo[2,3-d]pyrimidin-7-yl)-5-((E)-5-(phenethylamino)pent-1-en-1-yl) cyclopentane-1,2-diol] | < 6.00 | ≤ 10 °C | < 5.00
CNc1ncnc2c1ccn2[C@@H]1C[C@H](C#CCNCCc2ccccc2)[C@@H](O)[C@H]1O [426 (297), (1R,2S,3R,5R)-3-[4-(methylamino)pyrrolo[2,3-d]pyrimidin-7-yl]-5-{3-[(2-phenylethyl)amino]prop-1-yn-1-yl}cyclopentane-1,2-diol] | < 6.00 | ≤ 10 °C | < 5.00
CNc1ncnc2c1ccn2[C@@H]1C[C@H](CSCCCNCCc2ccccc2)[C@@H](O)[C@H]1O [427 (299), (1R,2S,3R,5S)-3-(4-(methylamino)-7H-pyrrolo[2,3-d]pyrimidin-7-yl)-5-(((3-(phenethylamino)propyl)thio)methyl) cyclopentane-1,2-diol] | < 6.00 | ≤ 10 °C | 5.00 to 6.00
CNc1ncnc2c1ccn2[C@@H]1C[C@H](C[S+]([O-])CCCNCCc2ccccc2)[C@@H](O)[C@H]1O (stereo partly drawn) [428 (300), (1R,2S,3R,5S)-3-(4-(Methylamino)-7H-pyrrolo[2,3-d]pyrimidin-7-yl)-5-(((3-(phenethylamino)propyl)sulfinyl)methyl) cyclopentane-1,2-diol] | < 6.00 | ≤ 10 °C | < 5.00
CNc1ncnc2c1ccn2[C@@H]1C[C@H](CS(=O)(=O)CCCNCCc2ccccc2)[C@@H](O)[C@H]1O [429 (301), (1R,2S,3R,5S)-3-(4-(Methylamino)-7H-pyrrolo[2,3-d]pyrimidin-7-yl)-5-(((3-(phenethylamino)propyl)sulfonyl)methyl) cyclopentane-1,2-diol] | < 6.00 | ≤ 10 °C | < 5.00
CNc1ncnc2c1ccn2[C@@H]1C[C@H](CSCCN)[C@@H](O)[C@H]1O [430 (302), (1S,2R,3S,5R)-3-(((2-Aminoethyl)thio)methyl)-5-(4-(methylamino)-7H-pyrrolo[2,3-d]pyrimidin-7-yl) cyclopentane-1,2-diol] | < 6.00 | ≤ 10 °C | < 5.00
CNc1ncnc2c1ccn2[C@@H]1C[C@H](CSCCNCCc2ccccc2)[C@@H](O)[C@H]1O [431 (303), (1R,2S,3R,5S)-3-(4-(Methylamino)-7H-pyrrolo[2,3-d]pyrimidin-7-yl)-5-(((2-(phenethylamino)ethyl)thio)methyl) cyclopentane-1,2-diol] | < 6.00 | ≤ 10 °C | < 5.00
CNc1ncnc2c1ccn2[C@@H]1C[C@H](C[S+]([O-])CCNCCc2ccccc2)[C@@H](O)[C@H]1O (stereo partly drawn) [432 (304), (1R,2S,3R,5S)-3-(4-(Methylamino)-7H-pyrrolo[2,3-d]pyrimidin-7-yl)-5-(((2-(phenethylamino)ethyl)sulfinyl)methyl) cyclopentane-1,2-diol] | < 6.00 | ≤ 10 °C | < 5.00
CNc1ncnc2c1ccn2[C@@H]1C[C@H](CS(=O)(=O)CCNCCc2ccccc2)[C@@H](O)[C@H]1O [433 (305), (1R,2S,3R,5S)-3-(4-(Methylamino)-7H-pyrrolo[2,3-d]pyrimidin-7-yl)-5-(((2-(phenethylamino)ethyl)sulfonyl)methyl) cyclopentane-1,2-diol] | < 6.00 | ≤ 10 °C | < 5.00
CNc1ncnc2c1ccn2[C@@H]1C[C@H](CNC[C@H]2CCCNC2)[C@@H](O)[C@H]1O [436 (308), (1R,2S,3R,5R)-3-[4-(Methylamino)pyrrolo[2,3-d]pyrimidin-7-yl]-5-({[(3S)-piperidin-3-ylmethyl]amino}methyl) cyclopentane-1,2-diol] | < 6.00 | ≤ 10 °C | < 5.00
CNc1ncnc2c1ccn2[C@@H]1C[C@H](CN(CCCN)c2cncs2)[C@@H](O)[C@H]1O [437 (309), (1S,2R,3R,5R)-3-{[(3-Aminopropyl)(1,3-thiazol-5-yl)amino]methyl}-5-[4-(methylamino)pyrrolo[2,3-d]pyrimidin-7-yl]cyclopentane-1,2-diol] | < 6.00 | ≤ 10 °C | 5.00 to 6.00
CNc1ncnc2c1ccn2[C@@H]1C[C@H](CN(C[C@H]2CCCNC2)c2cncs2)[C@@H](O)[C@H]1O [438 (310), (1R,2S,3R,5R)-3-[4-(Methylamino)pyrrolo[2,3-d]pyrimidin-7-yl]-5-({[(3S)-piperidin-3-ylmethyl](1,3-thiazol-5-yl)amino}methyl) cyclopentane-1,2-diol] | < 6.00 | ≤ 10 °C | < 5.00
